Test results from publication PMC4826332 (Journal of medicinal chemistry, 2015).
Where two headings read alike, the source gives them in different places.

Legend:
[1] = target: aryl hydrocarbon receptor (AhR) (Homo sapiens, UniProt P35869); experiment: Yeast AhR-signaling assay; type: cell-based
CYP1A2 = target: T1, CYP1A2 (Homo sapiens, UniProt P05177); experiment: NADPH-dependency assay, P450 1A2; conditions: human, pH 7.6, probe methoxyresorufin (MROD), 5 µM
T1 sequence (P05177 1-516): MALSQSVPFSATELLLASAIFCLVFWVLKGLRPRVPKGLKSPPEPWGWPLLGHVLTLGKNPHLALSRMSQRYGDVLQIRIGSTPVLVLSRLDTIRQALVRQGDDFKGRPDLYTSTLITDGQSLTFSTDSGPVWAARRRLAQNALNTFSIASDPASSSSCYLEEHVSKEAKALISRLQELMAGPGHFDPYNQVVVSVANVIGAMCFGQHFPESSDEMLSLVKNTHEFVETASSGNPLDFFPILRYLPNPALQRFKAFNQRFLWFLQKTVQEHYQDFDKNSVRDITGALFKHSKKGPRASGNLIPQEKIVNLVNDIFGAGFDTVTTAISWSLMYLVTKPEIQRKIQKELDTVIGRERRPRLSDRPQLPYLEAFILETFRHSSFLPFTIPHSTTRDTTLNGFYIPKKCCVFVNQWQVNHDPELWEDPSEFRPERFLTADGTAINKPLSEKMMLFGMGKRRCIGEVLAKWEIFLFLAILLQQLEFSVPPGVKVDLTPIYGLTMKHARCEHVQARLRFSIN

P450 1A2 [2] = target: T2, P450 1A2 (Homo sapiens, UniProt P05177); experiment: NADPH-dependency assay, P450 1A2; conditions: 10 nM inhibitor, without NADPH preincubation
T2 sequence (P05177 1-516): T1 sequence (P05177 1-516)

P450 1A1 = target: T3, P450 1A1 (Homo sapiens, UniProt P04798); experiment: NADPH-dependency assay, P450 1A1; conditions: 10 nM (0.01 μM) inhibitor, with or without 5 min NADPH preincubation
T3 sequence (P04798 1-512): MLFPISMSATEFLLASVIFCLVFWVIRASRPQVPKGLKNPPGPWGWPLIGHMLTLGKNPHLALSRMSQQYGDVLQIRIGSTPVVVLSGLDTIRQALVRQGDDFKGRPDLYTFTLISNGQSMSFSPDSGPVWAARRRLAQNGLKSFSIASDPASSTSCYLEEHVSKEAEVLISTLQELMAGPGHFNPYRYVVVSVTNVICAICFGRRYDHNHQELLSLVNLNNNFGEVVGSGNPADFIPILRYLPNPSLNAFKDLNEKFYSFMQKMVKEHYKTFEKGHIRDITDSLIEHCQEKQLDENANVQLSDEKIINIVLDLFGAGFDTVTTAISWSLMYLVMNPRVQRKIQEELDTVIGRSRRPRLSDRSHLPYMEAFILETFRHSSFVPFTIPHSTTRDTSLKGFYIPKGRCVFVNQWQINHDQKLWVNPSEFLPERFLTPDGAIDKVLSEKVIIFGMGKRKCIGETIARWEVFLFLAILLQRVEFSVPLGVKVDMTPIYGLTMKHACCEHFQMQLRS

P450 1B1 = target: T4, P450 1B1 (Homo sapiens, UniProt Q16678); experiment: NADPH-dependency assay, P450 1B1; conditions: 10 nM (0.01 μM) inhibitor, with or without 5 min NADPH preincubation
T4 sequence (Q16678 1-543): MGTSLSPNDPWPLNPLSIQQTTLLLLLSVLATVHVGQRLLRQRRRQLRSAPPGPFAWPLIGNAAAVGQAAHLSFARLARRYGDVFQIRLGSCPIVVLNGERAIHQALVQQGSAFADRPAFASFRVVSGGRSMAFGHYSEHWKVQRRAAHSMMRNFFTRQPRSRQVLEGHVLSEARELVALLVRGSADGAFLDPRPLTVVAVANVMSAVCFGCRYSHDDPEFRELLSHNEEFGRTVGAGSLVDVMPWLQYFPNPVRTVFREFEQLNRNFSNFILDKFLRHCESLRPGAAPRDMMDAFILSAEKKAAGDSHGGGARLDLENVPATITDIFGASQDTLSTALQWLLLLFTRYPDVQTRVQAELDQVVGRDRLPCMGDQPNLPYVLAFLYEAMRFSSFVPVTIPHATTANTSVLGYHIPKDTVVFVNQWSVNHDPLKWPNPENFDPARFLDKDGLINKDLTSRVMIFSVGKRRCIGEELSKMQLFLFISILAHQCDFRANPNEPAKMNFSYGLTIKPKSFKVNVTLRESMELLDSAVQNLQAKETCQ

P450 1A2 [3] = target: T2, P450 1A2; experiment: Time-dependent inhibition of P450 1A2; conditions: for KI (time-dependent inhibition of P450 1A2): Kitz-Wilson plot
P450 1A2 in HepG2 cells = target: T5, P450 1A2 in HepG2 cells (Homo sapiens, UniProt P05177); experiment: MROD assay in HepG2 cells
T5 sequence (P05177 2-516): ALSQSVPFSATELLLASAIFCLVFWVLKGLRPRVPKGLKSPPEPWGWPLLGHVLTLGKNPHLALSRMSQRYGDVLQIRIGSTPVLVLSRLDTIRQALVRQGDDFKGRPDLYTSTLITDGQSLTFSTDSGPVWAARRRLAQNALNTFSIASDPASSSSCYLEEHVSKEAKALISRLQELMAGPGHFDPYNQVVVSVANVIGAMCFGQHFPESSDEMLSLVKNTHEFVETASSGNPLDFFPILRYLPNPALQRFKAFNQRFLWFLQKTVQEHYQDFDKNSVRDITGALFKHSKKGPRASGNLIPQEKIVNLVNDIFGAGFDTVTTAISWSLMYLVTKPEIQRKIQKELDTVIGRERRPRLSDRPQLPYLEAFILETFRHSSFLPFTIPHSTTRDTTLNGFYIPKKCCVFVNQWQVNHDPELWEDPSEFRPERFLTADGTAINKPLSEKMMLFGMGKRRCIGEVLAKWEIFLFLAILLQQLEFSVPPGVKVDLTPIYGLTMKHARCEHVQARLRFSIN

HepG2 cells = experiment: Alamar blue viability assay in HepG2 cells; type: cell-based, human

Chain of aryl hydrocarbon receptor (AhR) (P35869 11-848): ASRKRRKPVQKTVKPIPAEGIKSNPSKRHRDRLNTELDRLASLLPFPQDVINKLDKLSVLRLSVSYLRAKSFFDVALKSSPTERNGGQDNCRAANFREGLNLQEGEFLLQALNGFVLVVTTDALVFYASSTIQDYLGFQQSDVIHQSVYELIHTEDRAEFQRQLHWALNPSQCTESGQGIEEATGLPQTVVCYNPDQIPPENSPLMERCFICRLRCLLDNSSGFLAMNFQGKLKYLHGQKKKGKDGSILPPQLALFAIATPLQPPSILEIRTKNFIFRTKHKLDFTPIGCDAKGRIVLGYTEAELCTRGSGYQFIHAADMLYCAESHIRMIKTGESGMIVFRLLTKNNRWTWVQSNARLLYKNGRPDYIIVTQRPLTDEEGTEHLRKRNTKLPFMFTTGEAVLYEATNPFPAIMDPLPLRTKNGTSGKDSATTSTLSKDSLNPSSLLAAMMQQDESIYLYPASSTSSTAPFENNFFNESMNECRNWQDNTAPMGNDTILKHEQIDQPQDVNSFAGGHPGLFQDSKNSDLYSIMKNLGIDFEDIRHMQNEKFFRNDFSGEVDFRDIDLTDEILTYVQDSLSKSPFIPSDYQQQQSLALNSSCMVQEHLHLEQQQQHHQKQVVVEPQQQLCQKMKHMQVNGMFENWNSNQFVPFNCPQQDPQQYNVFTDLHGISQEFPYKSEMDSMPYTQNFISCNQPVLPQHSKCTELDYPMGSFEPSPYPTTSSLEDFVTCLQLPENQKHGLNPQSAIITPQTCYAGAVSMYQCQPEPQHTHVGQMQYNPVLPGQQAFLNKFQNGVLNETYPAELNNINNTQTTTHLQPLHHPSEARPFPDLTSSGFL
Chain of aryl hydrocarbon receptor (AhR) (P27540 whole entry partner): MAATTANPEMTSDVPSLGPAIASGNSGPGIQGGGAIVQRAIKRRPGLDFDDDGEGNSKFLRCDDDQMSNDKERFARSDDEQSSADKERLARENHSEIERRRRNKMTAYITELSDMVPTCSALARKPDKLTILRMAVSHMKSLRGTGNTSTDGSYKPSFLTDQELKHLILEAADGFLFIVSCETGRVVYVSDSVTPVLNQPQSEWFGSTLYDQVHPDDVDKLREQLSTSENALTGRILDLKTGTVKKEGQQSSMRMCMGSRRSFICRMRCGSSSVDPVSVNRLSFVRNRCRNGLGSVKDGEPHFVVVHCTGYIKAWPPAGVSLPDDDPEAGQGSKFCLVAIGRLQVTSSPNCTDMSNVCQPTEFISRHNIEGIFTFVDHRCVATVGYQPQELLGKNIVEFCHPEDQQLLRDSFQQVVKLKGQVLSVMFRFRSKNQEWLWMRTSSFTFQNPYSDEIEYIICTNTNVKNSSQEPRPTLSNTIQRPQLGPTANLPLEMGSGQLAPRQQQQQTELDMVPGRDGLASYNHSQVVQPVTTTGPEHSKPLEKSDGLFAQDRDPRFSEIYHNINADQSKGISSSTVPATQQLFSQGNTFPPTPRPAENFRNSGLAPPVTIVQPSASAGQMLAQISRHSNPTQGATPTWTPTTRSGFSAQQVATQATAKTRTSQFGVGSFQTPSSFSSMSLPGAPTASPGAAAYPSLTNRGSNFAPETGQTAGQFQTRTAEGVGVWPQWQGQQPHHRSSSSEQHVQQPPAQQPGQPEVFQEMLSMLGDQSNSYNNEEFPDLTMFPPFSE

## Cc1cc2c(ccc3c(=O)cc(-c4ccccc4)oc32)o1 [Compound 3, 8-Methyl-2-phenyl-4H-furo[2,3-h]chromen-4-one]
[1]; yeast strain MYA-3637
  concentrations showing considerable activation of AhR: higher than 10^−7 M
CYP1A2
  inhibition at 6 min, 0.01 µM: 90%
P450 1A2 [2]
  effect on P450 1A2 activity without NADPH preincubation: significant inhibition
P450 1A1
  effect on P450 1A1 activity: does not influence
P450 1B1
  effect on P450 1B1 activity: does not influence
P450 1A2 [3]
  mode of inhibition of P450 1A2 (time dependence): time-dependent inhibitor
  KI (time-dependent inhibition of P450 1A2): 0.44 µM
P450 1A2 [3]; listed as 7,8-furanoflavone
  mode of inhibition of P450 1A2 (time dependence): time-dependently inhibits
P450 1A2 [3]; listed as 78FF
  mode of inhibition of P450 1A2 (time dependence): time- and NADPH-dependent inhibition

## O=c1cc(-c2ccccc2)oc2ccc3ccccc3c12 [βNF, β-naphthoflavone, reference compound]
[1]; 10^−8 M, positive control, compared with blank control (1% DMSO)
  activation of AhR-signaling pathway (Abs405/Abs600): great activation
P450 1A2 in HepG2 cells; 10^−5 M, 24 h incubation, read at 10, 30, 60 min
  effect on MROD activity in HepG2 cells: increased

## O=c1cc(C(F)(F)F)c2ccc3c(c2o1)C=CCO3 [Compound 20, 4-(Trifluoromethyl)pyrano[2,3-f]chromen-2(8H)-one]
[1]; 10^−4 to 10^−10 M compound combined with 10^−8 M βNF
  influence on βNF-induced AhR activation: do not influence
[1]; yeast AhR activation assays
  concentration at which AhR is not activated: lower than 1 μM
[1]; yeast strain MYA-3637
  concentrations at which AhR-signaling pathway is not activated: lower than 10^−6 M
HepG2 cells
  concentration not toxic to HepG2 cells: ≤ 10^−5 M
P450 1A2 in HepG2 cells; 24 h incubation, read at 10, 30, 60 min
  concentrations decreasing MROD activity in HepG2 cells: higher than 10^−6 M
P450 1A2 in HepG2 cells; in-cell P450 1A2 inhibition assays
  concentrations decreasing MROD activity in HepG2 cells: higher than 1 μM
P450 1A2 [3]
  mode of inhibition of P450 1A2 (time dependence): competitive inhibitor

## Cc1cc2c(cc(O)c3c(=O)cc(-c4ccccc4)oc32)o1 [Compound 8, 5-Hydroxy-8-methyl-2-phenyl-4H-furo[2,3-h]chromen-4-one]
CYP1A2
  inhibition at 6 min, 0.01 µM: 90%
P450 1A1
  effect on P450 1A1 activity: does not influence
P450 1B1
  effect on P450 1B1 activity: does not influence
P450 1A2 [3]
  mode of inhibition of P450 1A2 (time dependence): time- and NADPH-dependent inhibition
  KI (time-dependent inhibition of P450 1A2): 0.12 µM
